Source: US12043602B2, “Fendiline derivatives” (The Board of Regents of the University of Texas System, priority 2019, dated 2024)

Columns and labels:
mGFP-K-RASG12V = mGFP-K-RASG12V (Homo sapiens (Human), UniProt P01116, G12V); assay: K-Ras mislocalization assay (confocal microscopy, Manders coefficient); assay type: cell-based; set-up: key to Emax: Manders coefficient: fraction of mCherry-CAAX co-localizing with GFP-K-Ras; conditions: for IC50 / Emax: MDCK cells; for IC50: 48 h treatment, read-out: IC50 (μM), KRASG12V mislocalization; for Emax: maximal effect, Manders coefficient, 48 h; for fold loss of potency to mislocalize KRAS: in comparison with 7
Experimental: Madine Darby Canine Kidney epithelial cells (MDCK) stably co-expressing mGFP-tagged full length oncogenic mutant K-Ras (GFP—K-RASG12V) or mGFP-LactC2 (peptide probe for phosphatidylserine) and mCherry-tagged to the amino acids 179-189 of H-RasC181S, C184S (mCherry-CAAX, localizes primarily to endomembranes) were grown in DMEM-high glucose/sodium pyruvate/10% FBS. The medium was supplemented with 1× Penicillin/Streptomycin for fluorescence microscopy assays, to avoid any microbial contamination from the test compounds added. KLE and Hec50 cells were maintained in DMEM-F-12 medium supplemented with 10% FBS. Hec-1A and Hec-1B cells were grown in McCoy's 5a medium supplemented with 10% FBS. ESS-1 cells were grown in RPMI 1640 medium supplemented with 20% FBS. MPanc96 cells were grown in DMEM supplemented with 10% FBS, MiaPaCa-2 cells in DMEM supplemented with 10% FBS and 2.5% horse serum and all other cell lines were grown in RPMI 1640 supplemented with 10% FBS. All cancer cell media were supplemented with ×Penicillin/Streptomycin. All cell lines were grown at 37° C. with 5% CO2.
MDCK co-expressing GFP—K-RASG12V or LactC2 and mCherry-CAAX were grown on coverslips, treated with 0.1% vehicle (DMSO) or various concentrations of drugs for 48 h, and fixed with 4% paraformaldehyde. The coverslips were mounted in mowiol and imaged by confocal microscopy (Nikon A1) using a 60× objective. Using ImageJ software v1.42q, images were converted to 8-bit, and a threshold to a control pixel of each image was set. As a measure of K-Ras/LactC2 mislocalization, the fraction of mCherry-CAAX co-localizing with mGFP-K-RASG12V was calculated using a Manders coefficient plugin downloaded from Wright Cell Image Facility. The fraction of mCherry-CAAX co-localizing with mGFP-RASG12V (Mander's coefficient) is proportional to K-Ras mislocalization.

[1] = tested on: MDCK cells co-expressing GFP-K-RASG12V and mCherry-CAAX; assay: Cytotoxicity in mislocalization screen (death of all cells in well); conditions: drug caused death of all cells in well at 30 μM

| IC50 (mGFP-K-RASG12V) [µM] | Emax (mGFP-K-RASG12V) | Compound | Cytotoxic at 30 μM [1] | fold loss of potency to mislocalize KRAS (mGFP-K-RASG12V) [fold] | Emax (mGFP-K-RASG12V; listed as 11e) | fold increase in KRAS mislocalization potency (mGFP-K-RASG12V; versus hit 7) [fold] | Cytotoxic at 30 μM ([1]; listed as 11e) | fold potency loss compared to 12e (mGFP-K-RASG12V; versus 12e) [fold] | KRAS PM localization inhibition activity (in words) (mGFP-K-RASG12V) |
| --- | --- | --- | --- | --- | --- | --- | --- | --- | --- |
| 0.17 | 0.764 | OC[C@H](c1ccccc1)N(CC=C(c1ccccc1)c1ccccc1)CC=C(c1ccccc1)c1ccccc1 [AVA72, reference compound] | No | – | – | – | – | – | – |
| 3.65 | 0.605 | COc1ccc(CCN(CC=C(c2ccccc2)c2ccccc2)CC=C(c2ccccc2)c2ccccc2)cc1 [NY0220, N-(3,3-diphenylallyl)-N-(4-methoxyphenethyl)-3,3-diphenylprop-2-en-1-amine] | No | – | – | – | – | – | – |
| 0.65 | 0.585 | C(CN1CCc2ccccc2C1)=C(c1ccccc1)c1ccccc1 [NY0221, 2-(3,3-diphenylallyl)-1,2,3,4-tetrahydroisoquinoline] | No | – | – | – | – | – | – |
| 0.25 | 0.587 | COc1ccc([C@@H](C)N(CC=C(c2ccccc2)c2ccccc2)C(C)=O)cc1 [NY0222, (R)-N-(3,3-diphenylallyl)-N-(1-(4-methoxyphenyl)ethyl)acetamide] | Yes | – | – | – | – | – | – |
| 8.45 | 0.785 | COc1ccc([C@@H](C)N(CC=C(c2ccccc2)c2ccccc2)S(C)(=O)=O)cc1 [NY0223, (R)-N-(3,3-diphenylallyl)-N-(1-(4-methoxyphenyl)ethyl)methanesulfonamide] | No | – | – | – | – | – | – |
| 0.64 | 0.622 | COc1ccc(NC(=O)N(CC=C(c2ccccc2)c2ccccc2)[C@H](C)c2ccc(OC)cc2)cc1 [NY0224, (R)-1-(3,3-diphenylallyl)-3-(4-methoxyphenyl)-1-(1-(4-methoxyphenyl)ethyl)urea] | No | – | – | – | – | – | – |
| – | 0.705 | COC(=O)CN(CC=C(c1ccccc1)c1ccccc1)[C@H](C)c1ccc(OC)cc1 [NY0228, (R)-methyl 2-((3,3-diphenylallyl)(1-(4-methoxyphenyl)ethyl)amino)acetate] | No | – | – | – | – | – | – |
| 6.39 | 0.522 | COc1ccc([C@@H](C)N(CC=C(c2ccccc2)c2ccccc2)CC(=O)O)cc1 [NY0229, (R)-2-((3,3-diphenylallyl)(1-(4-methoxyphenyl)ethyl)amino)acetic acid] | No | – | – | – | – | – | – |
| 3.56 | 0.522 | COc1ccc([C@@H](C)N(CC=C(c2ccccc2)c2ccccc2)CC(=O)N2CCc3ccccc3C2)cc1 [NY0233, (R)-1-(3,4-dihydroisoquinolin-2(1H)-yl)-2-((3,3-diphenylallyl)(1-(4-methoxyphenyl)ethyl)amino)ethanone] | No | – | – | – | – | – | – |
| 21.9 | 0.703 | C#CCN(CC=C(c1ccccc1)c1ccccc1)[C@H](C)c1ccc(OC)cc1 [NY0234, (R)-N-(1-(4-methoxyphenyl)ethyl)-3,3-diphenyl-N-(prop-2-yn-1-yl)prop-2-en-1-amine] | No | – | – | – | – | – | – |
| 1.21 | 0.59 | C=CC(=O)N(CC=C(c1ccccc1)c1ccccc1)[C@H](C)c1ccc(OC)cc1 [NY0235, (R)-N-(3,3-diphenylallyl)-N-(1-(4-methoxyphenyl)ethyl)acrylamide] | No | – | – | – | – | – | – |
| 12.2 | 0.79 | C(CN1CCCc2ccccc21)=C(c1ccccc1)c1ccccc1 [NY0237, 1-(3,3-diphenylallyl)-1,2,3,4-tetrahydroquinoline] | No | – | – | – | – | – | – |
| 2.3 | 0.910 | Fc1ccc2c(c1)CCCN2CC=C(c1ccccc1)c1ccccc1 [NY293, 1-(3,3-diphenylallyl)-6-fluoro-1,2,3,4-tetrahydroquinoline] | No | – | – | – | – | – | – |
| 2.95 | 0.751 | CC1CCc2ccccc2N1CC=C(c1ccccc1)c1ccccc1 (stereo not drawn) [NY304, 1-(3,3-diphenylallyl)-2-methyl-1,2,3,4-tetrahydroquinoline] | No | – | – | – | – | – | – |
| 3.95 | 0.893 | C(CN1CCC(c2ccccc2)CC1)=C(c1ccccc1)c1ccccc1 [NY306, 1-(3,3-diphenylallyl)-4-phenylpiperidine] | No | – | – | – | – | – | – |
| 4.2 | 0.858 | C(CN1CCN(c2ccccc2)CC1)=C(c1ccccc1)c1ccccc1 [NY307, 1-(3,3-diphenylallyl)-4-phenylpiperazine] | No | – | – | – | – | – | – |
| 1.69 | 0.842 | COc1ccc([C@@H](C)N(CC=C(c2ccccc2)c2ccccc2)C(=O)C(C)F)cc1 (stereo partly drawn) [NY314, N-(3,3-diphenylallyl)-2-fluoro-N-((R)-1-(4-methoxyphenyl)ethyl)propanamide] | No | – | – | – | – | – | – |
| 0.329 | 0.819 | COc1ccc([C@@H](C)N(CC=C(c2ccccc2)c2ccccc2)CCN2CCN(C(=O)OC(C)(C)C)CC2)cc1 [NY345, (R)-tert-butyl 4-(2-((3,3-diphenylallyl)(1-(4-methoxyphenyl)ethyl)amino)ethyl) piperazine-1-carboxylate] | No | – | – | – | – | – | – |

| Compound | IC50 (mGFP-K-RASG12V) [µM] | Emax (mGFP-K-RASG12V) | Cytotoxic at 30 μM [1] | fold loss of potency to mislocalize KRAS (mGFP-K-RASG12V) [fold] | Emax (mGFP-K-RASG12V; listed as 11e) | fold increase in KRAS mislocalization potency (mGFP-K-RASG12V; versus hit 7) [fold] | Cytotoxic at 30 μM ([1]; listed as 11e) | fold potency loss compared to 12e (mGFP-K-RASG12V; versus 12e) [fold] | KRAS PM localization inhibition activity (in words) (mGFP-K-RASG12V) |
| --- | --- | --- | --- | --- | --- | --- | --- | --- | --- |
| C=CCN(CC=C(c1ccccc1)c1ccccc1)[C@H](C)c1ccc(OC)cc1 [NY0217, (R)-N-allyl-N-(1-(4-methoxyphenyl)ethyl)-3,3-diphenylprop-2-en-1-amine] | 13 | 0.47 | No | – | – | – | – | – | – |
| COc1ccc([C@@H](C)N(C)CC=C(c2ccccc2)c2ccccc2)cc1 [NY0218, (R)-N-(1-(4-methoxyphenyl)ethyl)-N-methyl-3,3-diphenylprop-2-en-1-amine] | 3.3 | 0.75 ± 0.01 | No | 7 | – | – | – | – | – |
| COc1ccc([C@@H](C)N(CC=C(c2ccccc2)c2ccccc2)C(=O)Oc2ccccc2)cc1 [NY0225, (R)-phenyl (3,3-diphenylallyl)(1-(4-methoxyphenyl)ethyl)carbamate] | 0.43 | 0.626 | Yes | – | – | – | – | – | – |
| COc1ccc([C@@H](C)N(CC=C(c2ccccc2)c2ccccc2)CC(=O)N2CCN(C)CC2)cc1 [NY0232, (R)-2-((3,3-diphenylallyl)(1-(4-methoxyphenyl)ethyl)amino)-1-(4-methylpiperazin-1-yl)ethanone] | 1.1 | 0.73 ± 0.02 | No | – | – | – | – | – | – |
| COc1ccc([C@@H](C)N(CC=C(c2ccccc2)c2ccccc2)CCO)cc1 [NY0241, (R)-2-((3,3-diphenylallyl)(1-(4-methoxyphenyl)ethyl)amino)ethanol] | 0.2 | 0.72 ± 0.03 | No | – | 0.72 | 2.5 | did not show any cytotoxic | – | – |
| COc1ccc([C@@H](C)N(CC=C(c2ccccc2)c2ccccc2)CCF)cc1 [NY315, (R)-N-(2-fluoroethyl)-N-(1-(4-methoxyphenyl)ethyl)-3,3-diphenylprop-2-en-1-amine] | 10.1 | 0.52 ± 0.04 | No | 20 | – | – | – | – | – |
| COc1ccc([C@@H](C)N(CC=C(c2ccccc2)c2ccccc2)CCN2CCOCC2)cc1 [NY316, (R)-N-(1-(4-methoxyphenyl)ethyl)-N-(2-morpholinoethyl)-3,3-diphenylprop-2-en-1-amine] | 4.4 | 0.86 ± 0.02 | No | – | – | – | – | – | – |
| COc1ccc([C@@H](C)N(CC=C(c2ccccc2)c2ccccc2)CCN2CCNC(=O)C2)cc1 [NY325, (R)-4-(2-((3,3-diphenylallyl)(1-(4-methoxyphenyl)ethyl)amino)ethyl) piperazin-2-one] | 7.7 | 0.81 ± 0.02 | No | – | – | – | – | 6 | – |
| COc1ccc([C@@H](C)N(CC=C(c2ccccc2)c2ccccc2)CCN2CCCCC2)cc1 [NY329, (R)-N-(1-(4-methoxyphenyl)ethyl)-3,3-diphenyl-N-(2-(piperidin-1-yl)ethyl)prop-2-en-1-amine] | 0.6 | 0.83 ± 0.02 | Yes | – | – | – | – | – | – |
| COc1ccc([C@@H](C)N(C/C=C/c2ccccc2)CCN2CCN(C)CC2)cc1 [NY346, (R,E)-N-(1-(4-methoxyphenyl)ethyl)-N-(2-(4-methylpiperazin-1-yl)ethyl)-3-phenylprop-2-en-1-amine] | 14.8 | 0.84 ± 0.01 | No | – | – | – | – | – | complete loss of in vitro activity |
